This is an account of results in EP0694545B1, “Substituted dibenzoxazepine compounds, pharmaceutical compositions and methods of use” (G.D. SEARLE & CO., priority 1991, dated 1992).

Assay [1] has as its system prostaglandin E2-induced contractions of segments of guinea pig ileum. Briefly: Prostaglandin (PGE) Antagonism Assay in guinea pig ileum. Format: cell-based. Further details: key to PGE ANTAGONISM IN GUINEA PIG ILEUM (Active): Active: A concentration of test compound was determined to be "active" if it produced a dose ratio significantly greater than that obtained in a series of blank treatments. The following applies: for Kb: Cavia porcellus, read-out: PGE ANTAGONISM IN GUINEA PIG ILEUM (pA2) (converted); for PGE ANTAGONISM IN GUINEA PIG ILEUM (Active): initial concentration of test compound, dose ratio of EC50 dose values versus blank treatments. On the procedure:
In order to determine the effectiveness of several of the compounds of the present invention ("test compounds") as prostaglandin E2 antagonists, a prostaglandin antagonism assay was conducted, as described below, to determine the ability of these compounds to inhibit prostaglandin E2-induced contractions of segments of guinea pig ileum.
Male albino guinea pigs weighing 200 to 500 grams were sacrificed by cervical dislocation.
The ileums were then quickly removed from the guinea pigs and placed in a modified Tyrode solution, a solution which is known to those of skill in the art, containing one-half of the usual amount of magnesium ions.
Segments of ileum about 2 cm long were then cut and mounted in a 10-mL tissue bath containing the modified Tyrode solution. The solution was maintained at 37°C and aerated with a gaseous mixture of 95% oxygen and 5% carbon dioxide.
Submaximal contractions of the ileum segments were then generated by injecting prostaglandin E2 into the bath, and detected isotonically. Data for a control prostaglandin E2 dose response curve plotting concentration of prostaglandin E2 versus number of contractions generated was then obtained by experimentally adjusting the dose of the prostaglandin E2 being injected into the tissue bath, in a manner known by those of skill in the art.
Solutions or suspensions containing an initial amount of a test compound in modified Tyrode solution ("test solutions/ suspensions") were then separately substituted for the tissue bath. Each test solution/suspension was then kept in constant contact with the ileum tissue, except for brief periods to drain the bath in preparation for rinsing with fresh test solution/suspension. Different doses of prostaglandin E2 were again injected into the test solutions/suspensions.
A second prostaglandin E2 dose response curve was then generated for prostaglandin E2 in the presence of a test compound.
A dose ratio of EC50 dose values was then calculated from the results of each test in a manner known by those of skill in the art. […] Duplicate tests were conducted on each concentration of test compound.
If the initial concentration of a test compound was determined to be "active," then varying concentrations of the test compound were then assayed. As is shown in Table I below, all test compounds analyzed in this assay were determined to be "active" as prostaglandin E2 antagonists at the initial concentration.
The pA2 value (a statistical constant which is a common measure of expressing the potency of a particular drug as a competitive antagonist) was then calculated for each test compound by schild plot calculations, as described by H. O. Schild, "pA, A New Scale for the Measurement of Drug Antagonism," Br. J. Pharmacol, 2, 189 (1947), according to the following mathematical formula: pA2 = -log[Test Compound] to quantitate the effectiveness of the test compounds as prostaglandin E2 antagonists.

The subject of assay [2] is Charles River male albino mice. Kind of assay: PBQ Writhing Assay (analgesic activity). It is filed as in vivo. The following applies: for ED50: Mus musculus, po, read-out: PBQ WRITHING ASSAY (ED50 (mpk)) I.G.; for PBQ WRITHING ASSAY I.G. (Active / *): intragastric; for PBQ WRITHING ASSAY I.G. (Active / *) / PBQ WRITHING ASSAY S.C. (Active / *): initial screening dose 30 mg per kilogram, 30 min before PBQ i.p., writhes counted for ten minutes; for PBQ WRITHING ASSAY S.C. (Active / *): subcutaneous. The text has this: The Writhing Assay is one of the most widely-used experimental procedures for measuring the analgesic activity of different narcotic and nonnarcotic analgesic agents, and involves the continuous, chemically-induced pain of visceral origin to an animal, such as a mouse or rat. [Gyires et al., Arch. int. Pharmacodyn, 267, 131-140 (1984); […] al., Fed. Proc., 15, 494 (1956); Koster et al., Fed. Proc., 18, 412 (1959); and Witken et al., J. Pharmacol. exp. Ther., 133, 400-408 (1961).] Chemicals which may be used to induce this pain include phenylbenzoquinone (PBQ) and acetic acid. As a result of the chemical irritation to the animal, a characteristic stretching and writhing of the animal (dorsiflexion of the animal's back, extension of its hindlimbs and the strong contraction of its abdominal musculature) will generally occur. […] Drugs which reduce the number of writhes of the animal appear to restore the normal nociceptive threshold of the animal. Charles River male albino mice, weighing 20 to 30 grams were used in this assay. Thirty minutes after subcutaneous or intragastric administration to ten mice of 30 mg per kilogram of body weight of a compound of the present invention ("test compound"), […] per 10 g of body weight of a 0.025% w/v solution of PBQ was injected intraperitoneally into each mouse. Ten mice which were given saline in place of a test compound of the invention were used as a control group. Five minutes later, each mouse was individually placed into a glass beaker for observation, and the number of writhes occurring during the following ten-minute period was counted. A test compound was considered to have produced analgesia in a mouse if, in accordance with the conditions set forth above, and under the test criteria employed for this assay, after the administration of 30 mg per kilogram of body weight of a compound of the present invention to the mouse, the number of writhes elicited by a mouse injected with PBQ was equal to, or less than, one-half the median number of writhes recorded for the saline-treated control group of mice that day, as described by Taber in "Predictive Value of Analgesic Assays in Mice and Rats," Advances in Biochemical Psychopharmacology, 8, 191 (1974). The standard initial screening dose of a test compound employed in this assay was […] for both routes of administration. If this initial screening dose of the test compound produced analgesia in seven of ten mice, then the effect of additional doses of the test compound on the writhing response was evaluated, and then the ED50 dose was generally calculated. (The slopes of the dose-response curves for all test compounds analyzed were compared as described by Tallarida and Murray, Manual of Pharmacologic Calculations, Page 11 (Springer Verlag, New York, 1981)).
For orientation: In writhing tests, fewer writhes than in controls are read as antinociception.

The ED50 is the midpoint of the dose-response relation. On to `O=C(CCc1ccccn1)NNC(=O)N1Cc2ccccc2Oc2ccc(Cl)cc21` [Example 6, 8-chlorodibenz[b,f][1,4]oxazepine-10(11H)-carboxylic acid, 2-[1-oxo-3-(2-pyridinyl)propyl]hydrazide], for which the Kb in assay [1] (Schild plot calculation) is 2.51 µM. Besides, in assay [1], the “PGE ANTAGONISM IN GUINEA PIG ILEUM (Active)” value is “Active”. The 50% effective dose (ED50) in assay [2] (intragastric administration) was 8.6 mg/kg. In addition, in assay [2], the “PBQ WRITHING ASSAY I.G. (Active / *)” value is “Active” and the “PBQ WRITHING ASSAY S.C. (Active / *)” value is recorded as “Active”.

Consider `O=C(CCCc1cccs1)NNC(=O)N1Cc2ccccc2Oc2ccc(Cl)cc21` [Example 9, 8-chlorodibenz[b,f][1,4]oxazepine-10(11H)-carboxylic acid, 2-[1-oxo-4-(2-thienyl)butyl]hydrazide], for which the Kb in assay [1] (Schild plot calculation) is 0.0251 µM. For the same compound, in assay [1], the “PGE ANTAGONISM IN GUINEA PIG ILEUM (Active)” value is on record as “Active”. In addition, in assay [2] (intragastric administration), the ED50 was 6.8 mg/kg. In addition, in assay [2], the “PBQ WRITHING ASSAY I.G. (Active / *)” value is “Active” and the “PBQ WRITHING ASSAY S.C. (Active / *)” value is reported as “Active”.

Turning to “8-chlorodibenz[b,f][1,4]oxazepine-10(11H)-carboxylic acid, 2-[1-oxo-3-(4-pyridinyl)propyl]hydrazide, monohydrochloride [Example 26]”, in assay [1] (Schild plot calculation), the “PGE ANTAGONISM IN GUINEA PIG ILEUM (pA2)” value is listed as 6.5. The “PGE ANTAGONISM IN GUINEA PIG ILEUM (Active)” value in assay [1] is on record as “Active”. In assay [2] (intragastric administration), the “PBQ WRITHING ASSAY (ED50 (mpk)) I.G.” value is recorded as 6.8 mpk. Besides, in assay [2], the “PBQ WRITHING ASSAY I.G. (Active / *)” value was “Active” and the “PBQ WRITHING ASSAY S.C. (Active / *)” value is “Active”. For the same compound, in assay [2] (subcutaneous administration), the “PBQ WRITHING ASSAY (ED50 (mpk)) S.C.” value came out at 6.3 mpk.
